Source: patent US20180318263A1 (The Regents of the University of Colorado, a body corporate, priority 2016, published 2018)
Entries after “also recorded” stand apart in the source; their conditions may differ.

How the values were obtained:
[1] = tested on: enzalutamide-resistant PCa cells; assay: colony formation of enzalutamide-resistant versus parental PCa cells; format: cell-based
Source text: Colony formation was examined after 2 weeks by crystal violet stain and analyzed with image J.

[2] = tested on: LNCaP-Enza-Res cells; assay: growth of enzalutamide-resistant LNCaP cells (MTS); format: cell-based, human; details: for growth of enzalutamide-resistant LNCaP cells versus parental: single fat oxidation inhibitor, 48 hours
Source text: FIG. 16 is a set of four graphs split over two pages. […] Data is normalized to the vehicle treatment (no drugs). […] Data is normalized to the vehicle treatment (no drugs). […] Data is normalized to the vehicle treatment (no drugs). […] Data is normalized to the vehicle treatment (no drugs).
FIG. 17 is a pair of graphs showing the effects of treatment on the indicated cells. […] Data is normalized to the vehicle treatment (no drugs). […] Both concentrations are in microMolar (μM).
(§1) Parental LNCaP and VCaP cells treated with vehicle were used as their corresponding controls.

[3] = tested on: TRAMPC1 cells; assay: mouse TRAMPC1 cell growth / clonogenic assay; format: cell-based; details: for sensitivity to each drug treatment alone: TRAMPC1, enzalutamide (5 μM); for sensitivity of mouse prostate cancer cells: FIG. 12
Source text: FIG. 10 is an image and a graph showing mouse TRAMPC1 cell growth assay. […] Representative crystal violet stains are shown above graph.
These cells are important model because they can be placed in syngeneic C57B1 mice with a complete immune system.
This cell line from mouse PCa allows the evaluation of treatments in vivo, using immune-competent […] mice, which are syngenic with the TRAMPC1 cells.

[4] = tested on: LNCaP CPT1A-KD clones; assay: growth of LNCaP CPT1A-KD clones with enzalutamide; format: cell-based, human; details: enzalutamide (MDV3100) versus control clone
Experimental: (C) Relative growth of LNCaP-KD clones compared to control (NTshRNA) with Enza treatment. *p<0.001, compared to control treatment. ap<0.01 compared to control clone. (NTshRNA—left; CPT1Ash1—center; and CPT1 Ash2 at each timepoint for FIGS. 6A and 6B.)
Data is normalized to the vehicle (0 μM, no drug) treatment. Data represents mean±SD.
Etomoxir targets CPT1. […] It is possible that the decrease in AR observed with etomoxir is due to off-targets effects of the drug (besides CPT1), and/or the cells may need to be studied at earlier time points when apoptotic and ER stress mechanisms have not been set in motion.

[5] = tested on: mTOR; assay: ceramides and mTOR signaling after etomoxir; format: cell-based
Source text: (§2) (E) Stain of xenografts slices with phospho-4EBP1 antibody. (F) Western blot of LNCaP cells treated with vehicle (“V”) or etomoxir (“E”), C-Casp3=cleaved-caspase 3. (G) Putative diagram of mTOR signaling pathway.

[6] = tested on: LNCaP cells; assay: ER stress markers in etomoxir-treated LNCaP cells; format: cell-based, human
Source text: (C) Phosphorylation of the α-subunit of the translation initiation factor eIF2 (p-eIF2a) and expression of LC3 cleavage marker of autophagy. (D) Agarose gel showing the spliced (activated, 447 bp) XBP1 factor that regulates the response to ER stress.

[7] = tested on: BPH-1 and WPMY-1 cells; assay: viability of benign prostate cells with etomoxir; format: cell-based; details: etomoxir 75 μM
Source text: as §2

[8] = tested on: VCaP tumor; assay: VCaP xenograft tumor growth in mice treated with etomoxir; format: in vivo; details: VCaP xenografts, etomoxir 40 mg/kg/day for 21 days, p<0.05
Source text: as §2

[9] = tested on: PCa cells; assay: 14C-lipid oxidation in PCa cells; format: cell-based
[10] = tested on: PCa cell lines; assay: growth/viability of PCa cell lines with etomoxir; format: cell-based, human; details: etomoxir (75 μM in FIG. 2D), p<0.01
Source text: as §2

[11] = tested on: androgen receptor (AR); assay: AR gene expression and Western blot in LNCaP cells; format: cell-based, human; details: etomoxir 48 hours, p<0.05
Experimental: (A) Relative AR gene expression after vehicle (“V”) or etomoxir (“E”) treatment in LNCaP cells. ARfl=full length AR; ARv7=AR variant 7; AR total=all AR isoforms; PSA=prostate specific antigen; NKX3.1=Homeodomain-containing transcription factor regulated by androgens. […] (B) Western blot of full length AR and ARV7 variant in LNCaP cells treated with etomoxir for 48 hours.

[12] = tested on: primary PCa cells; assay: primary PCa cells derived from prostatectomies treated with etomoxir; format: cell-based, human; details: data not shown
Source text: The effects of etomoxir in primary PCa cells derived from prostatectomies carried out at University of Colorado hospital were examined.

[13] = tested on: VCaP-Enza-Res cells; assay: growth of enzalutamide-resistant VCaP cells; format: cell-based, human; details: single fat oxidation inhibitor, 48 hours
Source text: as §1

[14] = tested on: tumors of human cells resistant to enzalutamide; assay: enzalutamide-resistant human tumors in nude mice treated with ranolazine; format: in vivo; details: injections started on day 5

CNC(=O)c1ccc(N2C(=S)N(c3ccc(C#N)c(C(F)(F)F)c3)C(=O)C2(C)C)cc1F [enzalutamide]
growth in the presence of enzalutamide compared to parental controls [1]: grow better in the presence of enzalutamide | growth in the presence of enzalutamide ([2]; LNCaP-enzalutamide resistant cells versus parental, p<0.001): can grow in the presence of enzalutamide | sensitivity to each drug treatment alone [3]: not very sensitive | cell growth of CPT1A-deficient LNCaP clones [4]: more sensitive to enzalutamide treatment; also recorded: synergistic effect on cell growth

CCOC(=O)[C@@]1(CCCCCCOc2ccc(Cl)cc2)CO1 [etomoxir]
mTOR and downstream effectors S6K and 4EBP-1 ([5]; etomoxir treatment): decreased mTOR and its downstream effectors S6K and 4EBP-1 | palmitate-containing ceramides ([5]; etomoxir treatment (not shown)): increased palmitate-containing ceramides | autophagy markers (LC3) [6]: increase in autophagy markers (LC3) | markers of ER stress ([6]; ATF4, GADD34, GRP78, CHOP, p<0.001): increase in markers of ER stress | growth effect in benign cells [7]: not seen | tumor growth [8]: Decreased VCaP tumor growth; also recorded: also observed | 14C-lipid oxidation [9]: able to block 14C-lipid oxidation | sensitivity of mouse prostate cancer cells [3]: sensitive | growth / viability of PCa cells [10]: decrease their growth and died | growth / viability of PCa cells ([10]; listed as Etomoxir): decreases the viability | expression of androgen receptor (AR) and its variant forms [11]: significant decrease | glucose uptake [12]: momentary increase in glucose uptake | viability compared to matched non-cancerous cells [12]: concomitant decrease in viability

C1CCC(C(CC2CCCCN2)C2CCCCC2)CC1 (stereo not shown) [perhexiline]
sensitivity of mouse prostate cancer cells [3]: sensitive

COc1ccccc1OCC(O)CN1CCN(CC(=O)Nc2c(C)cccc2C)CC1 (stereo not shown) [ranolazine]
growth of enzalutamide-resistant VCaP cells versus parental [13]: more sensitive to ranolazine than their corresponding parental controls | growth of enzalutamide-resistant VCaP cells versus parental ([13]; listed as Ranolazine): inhibits growth | growth of enzalutamide-resistant LNCaP cells versus parental [2]: more sensitive to ranolazine than their corresponding parental controls | growth of enzalutamide-resistant LNCaP cells versus parental ([2]; listed as Ranolazine): inhibits growth | sensitivity of mouse prostate cancer cells [3]: sensitive | sensitivity to each drug treatment alone [3]: not very sensitive | sensitivity of enzalutamide-resistant tumors [14]: show signs of sensitivity
